Data: publication PMC9202147, “In vitro anti-HIV and cytotoxic effects of pure compounds isolated from Croton macrostachyus Hochst. Ex Delile” (BMC Complementary Medicine and Therapies, 2022)
Values after ≈ are worked out from the molar mass of the structure shown. Where two headings read alike, the source gives them in different places.

How the values were obtained:
HIV-1IIIB virus = experiment: Anti-HIV activity: inhibition of HIV-1-induced cytopathic effect in MT-4 cells, MTT colorimetric assay; assay type: cell-based; conditions: for SI (selective index): ratio of CC50 to EC50, MT-4 cells; for Emax: read-out: EmaxAV (maximum antiviral effect %, inhibition of virus-induced CPE)
Protocol: The effects of the test compounds in preventing cytopathic effects that occur because of HIV-1 replication were evaluated by MTT colorimetric assay. MT-4 cells suspended at 1 X 10^8 cells/ml were infected with 640 μL of HIV-1IIIB virus at 1.26 X10^8 TCID50/ml. After infection, 200 μl HIV-infected MT-4 cells (1 X10^5 cells/well) in growth media were added to each well. The plates were preincubated for 24 h at 37 °C to allow stabilization. Then, 50 μL of the test compounds (at a concentration of 4 mg/ml) were added to the first column of the well. With a multichannel pipette, 50 μL was transferred (in triplicate) from the wells labeled 1 to wells labeled 2. Such transfers were continued (serial dilution), moving from left to right, changing tips prior to mixing contents of the next column of wells. Finally, 50 μL was discarded from the wells in column 12. Different concentrations ([…]) of test compounds were prepared through serial dilution. Each dilution was tested in triplicates. The microtiter plates were incubated at 37 °C in a 5% CO2 incubator for 5 days. […] After 5 days of incubation, cell viability was determined by the MTT assay described. All compounds were assayed in triplicate.

MT-4 cells = experiment: in vitro; conditions: 5 days, MTT, mean ± S.E.M (n = 3); for MNTC (maximum nontoxic concentration): concentration with cell viability above 80% (CC20)
Protocol: (§1) A cytotoxicity test was conducted to evaluate the safety of the plant extracts by measuring cell death caused by the plant extracts. The assay was conducted using an MTT colorimetric assay. The MTT assay was based on the reduction of the yellow-colored tetrazolium salt MTT 3-(4,5-dimethylthiazol-2-yl)-2,5-diphenyltetrazolium bromide) by NAD(P)H-dependent cellular oxidoreductase enzymes to an insoluble dark-blue colored formazan that can be measured spectrophotometrically. Formazan production indicates the number of viable cells; therefore, an increase or decrease in cellular viability results in a change in the amount of formazan formed, which indicates the degree of cellular cytotoxicity (CC50) caused by the plant extract. MTT (3-(4,5-dimethylthiazol-2-yl)-2,5-diphenyl tetrazolium bromide) was dissolved in PBS to obtain a final concentration of 5 mg/ml and filtered to sterilize and remove insoluble residue. The assay was carried out in 96-well, flat-bottomed microtiter plates. To each well, 200 μl of MT-4 cells (1 × 10^5 cells) in growth media was added. The plates were preincubated for 24 h at 37 °C to allow stabilization. Then, 50 μL of the test compounds (at a concentration of 4 mg/ml) were added to the first column of the well. With a multichannel pipette, 50 μL was transferred (in triplicate) from the wells labeled 1 to wells labeled 2, and such transfers were continued (serial dilution), moving from left to right, changing tips prior to mixing contents of the next column of wells. Finally, 50 μL was discarded from the wells in column 12. […] Each dilution was tested in triplicates. The negative control (NC) wells contained 50 μl of MT-4 cells in 0.5% DMSO [52]. […] A 96-well microtiter plate containing the test compounds and positive and negative controls was incubated at 37 °C in a humidified atmosphere of 5% CO2 for 5 days. After incubation, 20 μl of MTT reagent (5 mg/ml MTT in phosphate-buffered saline) was added to each test well and control well. The plate was further incubated at 37 °C in a CO2 incubator for 4 hours. After 4 hours of incubation, 100 μl of DMSO was added to dissolve the dark-blue formazan crystals from surviving cells. After the formazan crystals were dissolved completely, the resulting optical density (OD) readings were measured relative to the controls on an ELISA plate reader at 570 nm with a reference wavelength of 620 nm. For each extract and pure compound tested, 3 triplicate determinations were performed. […] The concentration that determined cell viability above 80% (CC20) was chosen as the maximum non-toxic concentration (MNTC).

in vitro = conditions: human, MT-4 cells
Protocol: as §1

HIV = test system: HIV; set-up: method as in ref 61 (Chaniad et al); conditions: ref 61 (Chaniad et al); read-out: IC50 against HIV; cited from earlier work
[1] = target: HIV-1 RT-associated RNase H function; set-up: method as in ref 62 (Esposito et al); conditions: ref 62 (Esposito et al); cited from earlier work
[2] = HIV-1IIIB-infected MT-4 cells, 5 days, MTT, mean ± S.E.M (n = 3)
[3] = Human immunodeficiency virus 1, MT4, 120 h, read-out: IC50 (50% antiviral effect concentration), HIV-1IIIB-infected MT-4 cells, 5 days, MTT, mean ± S.E.M (n = 3)
[4] = Human immunodeficiency virus 1, MT4, 120 h, HIV-1IIIB-infected MT-4 cells, 5 days, MTT, mean ± S.E.M (n = 3)
[5] = CC50 (50% cytotoxic concentration), 5 days, MTT, mean ± S.E.M (n = 3)
[6] = Human immunodeficiency virus 1, MT4, 120 h, read-out: IC50 (50% antiviral effect concentration)

| SMILES | EmaxAV (maximum antiviral effect %, inhibition of virus-induced CPE) (HIV-1IIIB virus; [2]) [%] | IC50 (HIV-1IIIB virus; [3]) [µg/mL] | SI (selective index) (HIV-1IIIB virus) | MNTC (maximum nontoxic concentration) (MT-4 cells) [µg/mL] | CC50 (50% cytotoxic concentration) (MT-4 cells) [µg/mL] | EmaxC (maximum cytotoxic effect %) (MT-4 cells) [%] | Emax (HIV-1IIIB virus; [4]) [%] | CC50 at 5 days (in vitro) [µg/mL] | IC50 (HIV-1IIIB virus; Human immunodeficiency virus 1, MT4, as stated in abstract/conclusions, read-out: anti-HIV-1 inhibition IC50) [nM] | CC50 at 5 days (in vitro; [5]) [µg/mL] | IC50 (HIV-1IIIB virus; Human immunodeficiency virus 1, MT4, read-out: anti-HIV-1 inhibition IC50) [nM] | IC50 (HIV-1IIIB virus; Human immunodeficiency virus 1, MT4, as stated in abstract, read-out: anti-HIV-1 inhibition IC50) [µg/mL] | IC50 (HIV) [nM] | IC50, HIV-1 RT-associated RNase H function [1] [nM] | Emax (HIV-1IIIB virus; Human immunodeficiency virus 1, MT4, 120 h) [%] | IC50 (HIV-1IIIB virus; [6]) [µg/mL] |
| --- | --- | --- | --- | --- | --- | --- | --- | --- | --- | --- | --- | --- | --- | --- | --- | --- |
| Nc1nc(NC2CC2)c2ncn([C@H]3C=C[C@@H](CO)C3)c2n1 [ABC, Abacavir, reference compound] | 58.67 ± 0.43 | 0.05 ± 0.031 | 5.0 | 0.18 ± 0.03 | 0.26 ± 0.00 (≈ 0.908 µM) | 17.83 ± 0.57 |  |  |  |  |  |  |  |  |  |  |
| Cc1cn([C@H]2C[C@H](N=[N+]=[N-])[C@@H](CO)O2)c(=O)[nH]c1=O [AZT, Zidovudine, reference compound] | 83.5 ± 0.57 |  |  |  |  |  |  |  |  |  |  |  |  |  |  |  |
| COc1ccccc1COC(=O)c1ccccc1 [Compound 1, 2-methoxy benzyl benzoate] |  | 0.25 ± 0.02 | 0.0073 |  |  | 39.1 ± 2.22 | 53.2 ± 3.35 | 0.001 (≈ 0.00413 µM) |  |  |  |  |  |  |  |  |
| C=C(C)[C@@H]1CC[C@]2(C)CC[C@]3(C)[C@H](CC[C@@H]4[C@@]5(C)CCC(=O)C(C)(C)[C@@H]5CC[C@]43C)[C@@H]12 [Compound 2, lupenone] |  | 0.002 ± 0.001 | 14,084.0 | 14.17 ± 0.94 | 28.83 ± 0.54 (≈ 67.9 µM) | 38.53 ± 0.69 | 64.74 ± 0.52 |  | 4.7 | 32.5 ± 0.7 (≈ 76.4 µM) |  |  |  |  |  |  |
| C=C(C)[C@@H]1CC[C@]2(CO)CC[C@]3(C)[C@H](CC[C@@H]4[C@@]5(C)CC[C@H](O)C(C)(C)[C@@H]5CC[C@]43C)[C@@H]12 [Compound 4, betulin] |  | 0.002 ± 0.04 | 15,551.2 | 16.54 ± 0.35 |  | 55.13 ± 0.15 | 76 |  |  | 31.7 ± 0.55 (≈ 71.7 µM) | 4.5 | 4.5 | 17700 ± 600 |  |  |  |
| C=C(C)[C@@H]1CC[C@]2(C)CC[C@]3(C)[C@H](CC[C@@H]4[C@@]5(C)CC[C@H](O)C(C)(C)[C@@H]5CC[C@]43C)[C@@H]12 [Compound 5, lupeol] |  | 0.047 ± 0.02 | 3048.2 | 75.75 ± 0.74 |  | 70.28 ± 0.75 | 77.01 ± 0.38 |  |  | 141.8 ± 0.7 (≈ 332 µM) |  |  |  | 11600 |  |  |
| CC[C@H](/C=C/[C@@H](C)[C@H]1CC[C@H]2[C@@H]3CC=C4C[C@@H](O)CC[C@]4(C)[C@H]3CC[C@]12C)C(C)C [Compound 7, stigmasterol] |  |  | 86.5 | 4.70 ± 3.43 |  | 43.71 ± 2.02 |  |  |  | 12.4 ± 10.9 (≈ 30 µM) |  |  |  |  | 76.8 ± 23.2 | 0.14 ± 0.04 |
| Cc1ccnc2c1NC(=O)c1cccnc1N2C1CC1 [NVP, Nevirapine, reference compound] | 72.53 ± 0.47 | 0.24 ± 0.09 | 3.5 | 0.57 ± 0.0 | 0.82 ± 0.0 (≈ 3.08 µM) | 39.13 ± 0.65 |  |  |  |  |  |  |  |  |  |  |
| C[C@H](Cn1cnc2c(N)ncnc21)OCP(=O)(O)O [TDF, Tenofovir, reference compound] | 80.55 ± 0.46 |  |  | 4.92 ± 0.71 | 6.73 ± 0.24 (≈ 23.4 µM) | 13.17 ± 0.43 |  |  |  |  |  |  |  |  |  | 0.04 ± 0.01 |
